Test results as given in patent EP4671247A1, “SUBSTITUTED PYRAZOLOPYRIMIDINE COMPOUND AND PHARMACEUTICAL USE THEREOF” (Japan Tobacco Inc., priority 2023, dated 2024).
pIC50: −log10 of the molar value. Read-outs that look alike come from different tables or passages of the source.

Target: T1, NLRP3 inflammasome (Homo sapiens, UniProt Q96P20)
T1 construct: host or cells: THP1-Null cells (PMA-differentiated, LPS-primed, nigericin-stimulated)
Test: Evaluation of NLRP3 inflammasome inhibitory activity (inhibition of IL-1β production in LPS/Nigericin-stimulated THP1-Null cells, AlphaLISA)
Format: cell-based
Conditions: for pIC50: PMA, 1 µg/mL Lipopolysaccharides 3 hours, Nigericin 7.5 µmol/L 1.5 hours; for inhibition at 24 µM: test compound at 24 µM; for inhibition at 2.4 µM: test compound at 2.4 µM
Protocol: The NLRP3 inflammasome inhibitory activity of test compounds were evaluated on the basis of the inhibitory activity of the IL-1β production in THP1-Null cells (Product Number: thp-null, InvivoGen).
The supernatant of the culture was removed, and thereto was added media for assay (25 µL/well) containing 1 µg/mL Lipopolysaccharides (Product Number: L2654, Sigma-Aldrich (registered trademark)). […] The supernatant of the culture was removed. […] A solution containing a test compound (20 µL/well) was added to test compound-setting wells. […] The supernatant of the culture was cryonically stored (set at -20°C) until measurement of IL-1β.
The amount of IL-1β in the culture supernatant was quantitated with AlphaLISA (registered trademark) Human IL-1β Detection Kit (Product Number: AL220C, Perkin Elmer). Fluorescence intensity was measured with a microplate reader EnSpier (Model number: 2300-00J, Perkin Elmer) or EnSight (Model number: HH34000000, Perkin Elmer) according to procedure manuals attached thereto. Inhibition rates of the test compound-setting wells were calculated on the basis of 100% for the blank-setting wells and 0% for the control-setting wells.

[1] = IL-1β production in THP1-Null cells
[2] = IL-1β production in THP1-Null cells, read-out: IC50

T1 sequence (Q96P20 whole entry): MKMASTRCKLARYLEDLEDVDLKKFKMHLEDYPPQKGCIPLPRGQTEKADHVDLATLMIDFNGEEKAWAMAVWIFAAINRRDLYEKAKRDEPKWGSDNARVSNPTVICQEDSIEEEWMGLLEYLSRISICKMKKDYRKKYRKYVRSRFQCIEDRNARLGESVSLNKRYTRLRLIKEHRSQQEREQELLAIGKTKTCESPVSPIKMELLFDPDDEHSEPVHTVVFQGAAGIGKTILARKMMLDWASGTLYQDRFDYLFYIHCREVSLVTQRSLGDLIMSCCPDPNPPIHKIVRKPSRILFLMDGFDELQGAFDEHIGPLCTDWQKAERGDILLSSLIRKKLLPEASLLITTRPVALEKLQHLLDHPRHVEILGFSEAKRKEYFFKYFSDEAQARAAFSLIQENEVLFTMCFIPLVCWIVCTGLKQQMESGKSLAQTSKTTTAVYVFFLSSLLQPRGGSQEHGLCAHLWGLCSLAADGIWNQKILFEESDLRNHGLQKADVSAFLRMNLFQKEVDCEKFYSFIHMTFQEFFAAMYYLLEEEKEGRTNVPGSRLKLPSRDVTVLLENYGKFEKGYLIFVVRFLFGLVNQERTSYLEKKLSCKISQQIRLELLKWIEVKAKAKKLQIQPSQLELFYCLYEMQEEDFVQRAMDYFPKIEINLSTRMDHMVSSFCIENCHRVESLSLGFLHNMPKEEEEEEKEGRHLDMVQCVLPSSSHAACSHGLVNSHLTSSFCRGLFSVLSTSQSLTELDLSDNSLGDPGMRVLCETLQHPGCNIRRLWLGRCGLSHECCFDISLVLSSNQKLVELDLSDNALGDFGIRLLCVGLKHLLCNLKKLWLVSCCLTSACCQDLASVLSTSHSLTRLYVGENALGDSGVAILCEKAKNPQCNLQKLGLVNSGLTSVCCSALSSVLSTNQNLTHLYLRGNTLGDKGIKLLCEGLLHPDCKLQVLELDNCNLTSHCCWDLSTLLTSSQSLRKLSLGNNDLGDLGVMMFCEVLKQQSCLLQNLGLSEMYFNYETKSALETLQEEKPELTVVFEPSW

| Compound | pIC50 [2] | also measured |
| --- | --- | --- |
| Cc1cc(C(C)(F)F)cc(C)c1-n1cc2c(=O)[nH]c(C3(F)CCOC3)nc2n1 (single isomer, unassigned) [Example 130] | – | pIC50 [1]: 6.62 |
| Cc1cc(C(C)(F)F)cc(C)c1-n1cc2c(=O)[nH]c([C@@H]3C[C@H]3F)nc2n1 (single isomer, unassigned) [Example 146] | 7.82 | – |
| Cc1cc(C(C)(F)F)cc(C)c1-n1cc2c(=O)[nH]c([C@H]3C[C@@H]3F)nc2n1 (single isomer, unassigned) [Example 147] | 7.62 | – |
| Cc1cc(C(C)(F)F)cc(C)c1-n1cc2c(=O)[nH]c([C@@H](C)O)nc2n1 (single isomer, unassigned) [Example 154] | 7.60 | – |
| Cc1cc(C(C)(F)F)cc(C)c1-n1cc2c(=O)[nH]c([C@H](C)O)nc2n1 (single isomer, unassigned) [Example 155] | 6.21 | – |
| Cc1cc(C2CC2)cc(C)c1-n1cc2c(=O)[nH]c(C(C)O)nc2n1 (single isomer, unassigned) [Example 156] | – | pIC50 [1]: 7.89 |
| Cc1cc(C2CC2)cc(C)c1-n1cc2c(=O)[nH]c(C(C)O)nc2n1 (single isomer, unassigned) [Example 157] | – | pIC50 [1]: 6.47 |
| Cc1cc(OC(F)F)cc(C)c1-n1cc2c(=O)[nH]c([C@@H](C)O)nc2n1 (single isomer, unassigned) [Example 165] | 7.12 | – |
| Cc1cc(OC(F)F)cc(C)c1-n1cc2c(=O)[nH]c([C@H](C)O)nc2n1 (single isomer, unassigned) [Example 166] | 5.89 | – |
| Cc1cc(C2CC2)cc(C)c1-n1cc2c(=O)[nH]c(C(O)C(F)F)nc2n1 (single isomer, unassigned) [Example 169] | – | pIC50 [1]: 7.59 |
| Cc1cc(C2CC2)cc(C)c1-n1cc2c(=O)[nH]c(C(O)C(F)F)nc2n1 (single isomer, unassigned) [Example 170] | – | pIC50 [1]: 6.29 |
| Cc1cc(OC(F)F)cc(C)c1-n1cc2c(=O)[nH]c([C@@H]3C[C@H]3F)nc2n1 (single isomer, unassigned) [Example 172] | – | pIC50 [1]: 8.10 |
| Cc1cc(OC(F)F)cc(C)c1-n1cc2c(=O)[nH]c(C3CC3F)nc2n1 (single isomer, unassigned) [Example 173] | – | pIC50 [1]: 7.82 |
| Cc1cc(OC(F)F)cc(C)c1-n1cc2c(=O)[nH]c(C3(O)CCOCC3F)nc2n1 (single isomer, unassigned) [Example 174] | 7.52 | – |
| Cc1cc(OC(F)F)cc(C)c1-n1cc2c(=O)[nH]c(C3CCOCC3F)nc2n1 (single isomer, unassigned) [Example 176] | – | pIC50 [1]: 7.12 |
| Cc1cc(OC(F)F)cc(C)c1-n1cc2c(=O)[nH]c(C3CCOCC3F)nc2n1 (single isomer, unassigned) [Example 177] | – | pIC50 [1]: 7.62 |
| Cc1cc(C2CC2)cc(C)c1-n1cc2c(=O)[nH]c(C3CCOCCO3)nc2n1 (single isomer, unassigned) [Example 178, 2-(4-cyclopropyl-2,6-dimethylphenyl)-6-(1,4-dioxepan-5-yl)-2,5-dihydro-4H-pyrazolo[3,4-d]pyrimidin-4-one] | 7.96 | – |
| Cc1cc(C2CC2)cc(C)c1-n1cc2c(=O)[nH]c(C3CCOCCO3)nc2n1 (single isomer, unassigned) [Example 179, 2-(4-cyclopropyl-2,6-dimethylphenyl)-6-(1,4-dioxepan-5-yl)-2,5-dihydro-4H-pyrazolo[3,4-d]pyrimidin-4-one] | 7.29 | – |
| Cc1cc(OC(F)F)cc(C)c1-n1cc2c(=O)[nH]c(C3COCC3F)nc2n1 (single isomer, unassigned) [Example 182] | – | pIC50 [1]: 8.10 |
| Cc1cc(OC(F)F)cc(C)c1-n1cc2c(=O)[nH]c(C3COCC3F)nc2n1 (single isomer, unassigned) [Example 183] | – | pIC50 [1]: 7.46 |
| Cc1cc(C(C)(F)F)cc(C)c1-n1cc2c(=O)[nH]c(C3CCOCCO3)nc2n1 (single isomer, unassigned) [Example 187] | – | pIC50 [1]: 7.17 |
| Cc1cc(C(C)(F)F)cc(C)c1-n1cc2c(=O)[nH]c(C3CCOCCO3)nc2n1 (single isomer, unassigned) [Example 188] | – | pIC50 [1]: 6.72 |

| Compound | pIC50 [2] | also measured |
| --- | --- | --- |
| Cc1cc(OC(F)F)cc(C)c1-n1cc2c(=O)[nH]c(C3CCOCCO3)nc2n1 (single isomer, unassigned) [Example 193] | – | pIC50 [1]: 7.57 |
| Cc1cc(OC(F)F)cc(C)c1-n1cc2c(=O)[nH]c(C3CCOCCO3)nc2n1 (single isomer, unassigned) [Example 194] | – | pIC50 [1]: 7.00 |
| Cc1ccccc1-n1cc2c(=O)[nH]c(C3CCCC3)nc2n1 [Example 1] | 5.64 | – |
| Cc1ccccc1-n1cc2c(=O)[nH]c(C3=CCCC3)nc2n1 [Example 2] | 5.89 | – |
| Cc1ccc(-n2cc3c(=O)[nH]c(C4CC4)nc3n2)c(C)c1 [Example 3] | 6.62 | – |
| Cc1ccc(-n2cc3c(=O)[nH]c(C)nc3n2)c(C)c1 [Example 4] | 6.27 | – |
| COCc1nc2nn(-c3ccc(C)cc3C)cc2c(=O)[nH]1 [Example 5] | 6.24 | – |
| Cc1ccc(-n2cc3c(=O)[nH]c(CC(C)C)nc3n2)c(C)c1 [Example 6] | 6.37 | – |
| Cc1ccc(-n2cc3c(=O)[nH]c(C(F)(F)F)nc3n2)c(C)c1 [Example 7] | – | inhibition at 30 µM (test compound at 30 µM, IL-1β production in THP1-Null cells): 44% |
| CCc1nc2nn(-c3ccc(C)cc3C)cc2c(=O)[nH]1 [Example 8] | 6.64 | – |
| COCCc1nc2nn(-c3ccc(C)cc3C)cc2c(=O)[nH]1 [Example 9] | 5.96 | – |
| Cc1ccc(-n2cc3c(=O)[nH]c(C(F)F)nc3n2)c(C)c1 [Example 10] | 4.89 | – |
| CCOc1nc(C)nc2nn(-c3ccc(C)cc3C)cc12 [Example 11] | – | inhibition at 24 µM [1]: 43% |
| COc1nc(C)nc2nn(-c3ccc(C)cc3C)cc12 [Example 12] | – | inhibition at 24 µM [1]: 26% |
| Cc1ccc(-n2cc3c(=O)n(C)c(C)nc3n2)c(C)c1 [Example 13, 2-(2,4-dimethylphenyl)-5,6-dimethyl-2,5-dihydro-4H-pyrazolo[3,4-d]pyrimidin-4-one] | – | inhibition at 24 µM [1]: 3% |
| COC(=O)Cn1c(C)nc2nn(-c3ccc(C)cc3C)cc2c1=O [Example 14] | – | inhibition at 2.4 µM [1]: -13% |
| Cc1ccc(-n2cc3c(=O)n(CC(=O)O)c(C)nc3n2)c(C)c1 [Example 15] | – | inhibition at 2.4 µM [1]: -3% |
| Cc1ccc(-n2cc3c(=O)n(CC(=O)N(C)C)c(C)nc3n2)c(C)c1 [Example 16] | – | inhibition at 2.4 µM [1]: -14% |
| CNC(=O)Cn1c(C)nc2nn(-c3ccc(C)cc3C)cc2c1=O [Example 17] | – | inhibition at 2.4 µM [1]: -15% |
| Cc1nc2nn(-c3c(C)cc(Br)cc3C)cc2c(=O)[nH]1 [Example 18] | – | pIC50 (IC50, IL-1β production in THP1-Null cells): 6.66 |
| Cc1nc2nn(-c3c(C)cc(C4CC4)cc3C)cc2c(=O)[nH]1 [Example 19] | 6.77 | – |
| Cc1cc(C2CC2)cc(F)c1-n1cc2c(=O)[nH]c(C3CC3)nc2n1 [Example 20] | 7.89 | – |

| Compound | pIC50 [2] | also measured |
| --- | --- | --- |
| Cc1cc(C2CC2)cc(C)c1-n1cc2c(=O)[nH]c(C3CC3)nc2n1 [Example 21] | 7.92 | – |
| Cc1cc(C2CC2)cc(C)c1-n1cc2c(=O)[nH]c(C3CCC3)nc2n1 [Example 22] | 7.92 | – |
| CCc1nc2nn(-c3c(C)cc(C4CC4)cc3C)cc2c(=O)[nH]1 [Example 23] | 7.62 | – |
| Cc1cc(C2CC2)ccc1-n1cc2c(=O)[nH]c(C3CC3)nc2n1 [Example 24] | 7.33 | – |
| COCc1cc(C2CC2)ccc1-n1cc2c(=O)[nH]c(C3CC3)nc2n1 [Example 25] | 7.36 | – |
| COc1cc(C2CC2)ccc1-n1cc2c(=O)[nH]c(C3CC3)nc2n1 [Example 26] | 7.12 | – |
| COCc1nc2nn(-c3c(C)cc(Br)cc3C)cc2c(=O)[nH]1 [Example 27] | 7.54 | – |
| Cc1cc(Br)cc(C)c1-n1cc2c(=O)[nH]c(C3(C#N)CC3)nc2n1 [Example 30] | 6.55 | – |
| Cc1ccc(-n2cc3c(=O)[nH]c(C4CCOCC4)nc3n2)c(C)c1 [Example 33] | 7.17 | – |
| Cc1ccc(-n2cc3c(=O)[nH]c(CCCS(C)(=O)=O)nc3n2)c(C)c1 [Example 37] | 5.96 | – |
| Cc1ccc(-n2cc3c(=O)[nH]c(CN4CCOCC4)nc3n2)c(C)c1 [Example 38] | – | inhibition at 2.4 µM [1]: 40% |
| Cc1cc(C2CC2)cc(C)c1-n1cc2c(=O)[nH]c(C3COC3)nc2n1 [Example 39] | 7.80 | – |
| Cc1cc(C2CC2)cc(C)c1-n1cc2c(=O)[nH]c(C3CCOCC3)nc2n1 [Example 42] | 8.40 | – |
| COCc1nc2nn(-c3c(C)cc(C4CC4)cc3C)cc2c(=O)[nH]1 [Example 43] | 7.38 | – |
| Cc1cc(C2CC2)cc(C)c1-n1cc2c(=O)[nH]c(C3(C)COC3)nc2n1 [Example 44] | 7.33 | – |
| Cc1cc(C2CC2)cc(C)c1-n1cc2c(=O)[nH]c(C3CC(F)(F)C3)nc2n1 [Example 45] | 8.15 | – |
| Cc1cc(Br)cc(C)c1-n1cc2c(=O)[nH]c(COCC3CCOCC3)nc2n1 [Example 46] | 6.85 | – |
| Cc1cc(C2CC2)cc(C)c1-n1cc2c(=O)[nH]c(COCC3CCOCC3)nc2n1 [Example 47] | 6.74 | – |
| Cc1cc(C2CC2)cc(C)c1-n1cc2c(=O)[nH]c(C3(F)CC3)nc2n1 [Example 48] | 7.64 | – |
| Cc1cc(C2CC2)cc(C)c1-n1cc2c(=O)[nH]c(C34CC(F)(C3)C4)nc2n1 [Example 49] | 7.62 | – |
